# Assay results published in article PMC10755728, “Inhibitors of the Elastase LasB for the Treatment of Pseudomonas aeruginosa Lung Infections” (ACS Central Science, 2023).
# Legend:
# Plasma stability, mouse = type: in vitro ADME
# COX-1 = molecular target: T1, COX-1 (Ovis aries, UniProt P05979); test: Fluorometric COX-1 inhibitor assay; type: biochemical, human
# T1 construct: purchased Abcam (Cambridge, UK)
# T1 sequence (P05979 25-600): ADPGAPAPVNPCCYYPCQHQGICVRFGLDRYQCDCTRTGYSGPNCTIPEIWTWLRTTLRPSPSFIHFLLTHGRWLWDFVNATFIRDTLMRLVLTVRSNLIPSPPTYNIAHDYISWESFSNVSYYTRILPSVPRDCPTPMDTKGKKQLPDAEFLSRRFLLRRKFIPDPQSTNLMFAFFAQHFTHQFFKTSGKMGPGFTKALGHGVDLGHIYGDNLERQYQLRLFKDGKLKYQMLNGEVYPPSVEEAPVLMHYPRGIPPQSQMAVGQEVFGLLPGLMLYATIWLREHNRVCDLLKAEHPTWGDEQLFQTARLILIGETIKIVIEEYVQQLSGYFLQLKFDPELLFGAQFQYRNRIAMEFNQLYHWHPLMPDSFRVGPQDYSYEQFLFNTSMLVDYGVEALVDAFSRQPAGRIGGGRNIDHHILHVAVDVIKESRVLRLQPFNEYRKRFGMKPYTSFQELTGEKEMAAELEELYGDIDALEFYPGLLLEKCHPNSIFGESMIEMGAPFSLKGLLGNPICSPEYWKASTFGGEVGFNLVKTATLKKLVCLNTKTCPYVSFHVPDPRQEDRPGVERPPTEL
smiles,measurement,setting,value
CC(C)CC(C(=O)Nc1ccc(C(F)(F)F)cc1)P(=O)(O)O (stereo not drawn) [Compound 4b],half-life,"Plasma stability, mouse; C57BL6, mouse, pooled plasma, species profiling, read-out: Plasma T1/2 Mouse (C57BL6)",> 4 h
same,half-life at 1 μM,"Plasma stability, mouse; mouse plasma, read-out: Plasma T1/2 Mouse",> 2.5 h
same,inhibition at 100 µM,COX-1,< 10%
